Experimental data reported in patent US9682118B1, “Inhibition of metastasis by cell penetrating peptides” (University of Mississippi Medical Center, priority 2006, dated 2017).

Tested on: SKOV-3 cells
Assay: Boyden chamber migration assay
Format: cell-based
Conditions: SKOV-3, 8 μm pores, 24 h
Experimental: FIG. 14 is data related to a Boyden chamber assay. […] Cells were washed, fixed, stained with hematoxylin and 4 random fields were counted at 20× magnification. FIG. 14B is a set of images after cells were later incubated with Hoechst dye for 10 min. and images were obtained at 10× magnification.
In order to confirm the role of CPP-ELPs in preventing migration of SKOV-3 cells, a boyden chamber assay was performed (35). This assay involves a membrane with pore size of 8 μm. SKOV-3 cells are plated on one side of the membrane, and a chemoattractant (FBS) is placed on the opposite side of the membrane. The cells are allowed to migrate trough the pores toward the chemoattractant for […], and the cells which penetrated the membrane are quantified by cell counting and independently by Hoechst staining and fluorescence microscopy. […] Serum starvation of cells overnight ruled out the fact that proliferation was a contributing factor in this assay.

“Tat (YGRKKRRQRRR; Tat CPP) [Tat peptide]” was tested, and the “migration across the membrane toward FBS” value was “migrated across the membrane”.
